Data from patent publication US6121323A, “Bishydroxyureas” (3M Innovative Properties Company, priority 1997, dated 2000).

Tests used:
[1] = system: Leukotriene B4 production in rat blood; assay: Rat ex vivo Leukotriene B4 inhibition; assay type: in vivo; conditions: 50 mg/Kg oral, 2 hours post dose, ex vivo A23187 challenge
Description: RAT EX VIVO LEUKOTRIENE B4 INHIBITION
The test method described below measures the ability of a compound when administrated orally to rats to inhibit the production of Leukotriene B4 in their blood which is drawn and challenged.
Rats (CD, male, non-fasted, 250 g) are lightly anesthetized with carbon dioxide and an approximately 0.75 mL sample of whole blood is obtained via cardiac puncture. The sample is dispensed into 12×75 mm polypropylene tubes containing 8-10 μL of 10,000 units/mL heparin, mixed and then maintained on ice. The rats are allowed to recover approximately one hour then dosed orally with compound dissolved in PEG 400 at a 5 mL/Kg volume. Five (5) rats are utilized per group. Two (2) hours post dose the rats are again anesthetized with carbon dioxide and the blood sampled again via cardiac puncture.
Duplicate 200 μL portions of blood are added to 1.0 mL polypropylene tubes. A 10 μL portion of 1 mM A23 187 Calcium Ionophore in dimethyl sulfoxide/Tris buffer is added to each tube. The tubes are gently vortexed then incubated in a 37° C. water bath for 30 minutes. The tubes are then centrifuged at 4000 rpm for 10 minutes. 50 μL portions of plasma are transferred to 1.0 mL tubes containing 200 μL of methanol. The tubes are vortexed then placed in the freezer overnight.
The tubes are removed from the freezer then centrifuged at 4000 rpm for 10 minutes. 20 μL portions of the methanol/plasma supernatant and 10 μl methanol dilutions of LTB4 standard are transferred to 96 well v-bottom microtiter plates. The plates are vacuum dried at 40° C. A 40 μL portion of LTB4 radioimmunoassay buffer is added to each well. The plate is bath sonicated for 5 minutes then assayed according to the manufacturer's instructions (Advanced Magnetics; Cambridge, Mass.). Percent inhibition values are obtained by comparing the level of LTB4 in the post-dose samples to the level in the pre-dose samples according to the equation below. [formula]

[2] = system: Leukotriene C4 production in mouse peritoneal macrophages; assay: In vitro mouse peritoneal macrophage Leukotriene C4 inhibition; assay type: cell-based; conditions: zymosan stimulated, read-out: Percent Inhibition
Description: IN VITRO MOUSE PERITONEAL MACROPHAGE LEUKOTRIENE C4 INHIBITION
The test described below measures the ability of compounds to inhibit the production of Leukotriene C4 in mouse peritoneal macrophages.
Mice (female, CD-1, weighing 25 g) are euthanized by exposure to carbon dioxide. The pertoneal cavity is exposed by peeling back the abdominal skin. A 5 mL portion of media (M199 containing 1% fetal bovine serum, 100 units/mL of penicillin, 100 μg/mL streptomycin, 20 units/mL of heparin and no glutamine) is injected into the exposed peritoneal cavity of each mouse. The lavage fluid is removed and pooled to yield proximately 1×10^6 macrophages/mL. A 2 mL portion of lavage fluid is added to each well of a 24 well sterile multidish and the marcophages are allowed to adhere to the plate for 2 hours at 37° C. in a 5% carbon dioxide atmosphere. The media is removed and each well is washed with 2 mL of phosphate buffered saline (PBS). A 1 mL portion of media, without heparin, but containing 5 μCi/mL of 3H-myoinositol is added to each well and the plates are incubated overnight at 37° C. in a 5% carbon dioxide atmosphere. The media is removed and the cells are washed twice with 2 mL portions of PBS. A 1 mL portion of Puck's saline formulation A containing 1 mM calcium chloride, 1 mM magnesium chloride and 10 mM lithium chloride is added to each well. (The Puck's formulation is made first as a 10× solution which contains 4 g of potassium chloride, 80 g of sodium chloride and 10 g of glucose per liter. The Puck's saline formulation A is made using 10 mL of the 10× Puck's formulation, 0.47 mL of 7.5% sodium bicarbonate and 2 mL of 1M N-2-hydroxyethylpiperazine-N'-2-ethanesulfonic acid per 100 mL.)
Compounds are dissolved in dimethyl sulfoxide. Compounds are tested at concentrations of 10, 1 and 0.1 μM. Each concentration is tested in duplicate.
A 1 μL portion of compound solution or vehicle (DMSO) is added to each well and the plates are incubated for 15 minutes at 37° C. in a 5% carbon dioxide atmosphere. Zymosan is then added to provide a final concentration of 50 μg/mL in each well and the plate is incubated for 1 to 2 hours at 37° C. in a 5% carbon dioxide atmosphere.
Following incubation 200 μL portions of media are transferred to 12×75 mm tubes. The tubes are either assayed immediately or stored at -20° C. until they can be assayed.
The media is assayed for the presence of Leukotriene C4 by radioimmunoassay which is performed according to the manufacturer's instructions (Advanced Magnetics; Cambridge, Mass.). Inhibition of LTC4 production is calculated as the ratio of the amount of LTC4 formed in the presence (LTC4 +cpd) and absence (LTC4 no cpd)of compound according to the equation below. [formula] IC50 values (concentration of compound producing a 50% inhibition of LTC4 production) are calculated by linear regression analysis of percentage inhibition versus log compound concentration plots.

5-lipoxygenase = target: T1, 5-lipoxygenase (Homo sapiens, UniProt P09917); assay: 5-Lipoxygenase inhibition in human leukocytes (LTC4 by radioimmunoassay); assay type: cell-based; conditions: A23187 stimulated, LTC4 readout, read-out: IC50 (concentration producing 50% leukotriene biosynthesis inhibition)
T1 construct: endogenous in cells; host or cells: leukocytes from whole human blood (EDTA, dextran sedimentation, hypotonic lysis)
T1 sequence (P09917 1-674): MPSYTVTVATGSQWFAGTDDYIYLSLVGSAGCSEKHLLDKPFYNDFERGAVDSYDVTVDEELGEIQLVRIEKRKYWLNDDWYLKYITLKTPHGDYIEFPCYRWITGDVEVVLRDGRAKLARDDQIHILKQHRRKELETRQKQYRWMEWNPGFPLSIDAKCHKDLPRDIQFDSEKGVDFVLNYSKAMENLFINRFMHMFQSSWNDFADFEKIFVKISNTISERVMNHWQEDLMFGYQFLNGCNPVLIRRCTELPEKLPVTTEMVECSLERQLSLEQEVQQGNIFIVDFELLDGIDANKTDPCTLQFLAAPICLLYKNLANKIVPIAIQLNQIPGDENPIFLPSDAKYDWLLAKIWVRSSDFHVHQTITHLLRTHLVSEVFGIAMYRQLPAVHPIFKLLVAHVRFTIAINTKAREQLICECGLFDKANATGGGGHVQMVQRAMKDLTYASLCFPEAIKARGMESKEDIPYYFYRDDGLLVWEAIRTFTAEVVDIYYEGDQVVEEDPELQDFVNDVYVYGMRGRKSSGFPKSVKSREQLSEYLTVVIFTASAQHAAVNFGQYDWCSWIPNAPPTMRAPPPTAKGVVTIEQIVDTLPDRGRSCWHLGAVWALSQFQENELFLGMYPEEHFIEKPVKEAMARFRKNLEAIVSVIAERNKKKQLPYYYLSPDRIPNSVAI
Description: 5-LIPOXYGENASE INHIBITION IN HUMAN LEUKOCYTES
The test method described below measures the ability of compounds of the invention to inhibit 5-lipoxygenase activity in human leukocytes.
Whole human blood is collected by venipuncture into EDTA (1.4 mL of 0.25M per 60 mL of whole blood). The red blood cells are sedimented with a 6% dextran/0.9% sodium chloride solution at a ratio of 25 mL whole blood to 15 mL dextran solution. The blood/dextran combination is mixed by inversion and the red blood cells are allowed to settle out for 45 minutes at ambient temperature. The plasma/dextran supernatant is removed then centrifuged at ambient temperature at 3000 rpm for 10 minutes. The plasma/dextran supernatant is removed and the cells are resuspended in 10 mL of the plasma/dextran solution. The cell suspension is combined with 20 mL of water, mixed for 1.5 minutes then immediately combined with 10 mL of 3.6% sodium chloride, mixed and centrifuged at ambient temperature at 3000 rpm for 10 minutes. The pellet is washed with 40 mL of Tris buffer (5.55 mM dextrose, 15.36 mM Tris base, 136.9 mM sodium chloride with pH 7.3-7.4) then centrifuged at 3000 rpm for 10 minutes. The pellet is then resuspended into Tris buffer containing 1 mM calcium chloride to provide approximately 1.0×10^7 cells/mL.
Compounds are dissolved in dimethyl sulfoxide. Compounds are tested at concentrations of 100, 33, 11, 3.7, 1.2 and 0.41 μM. Each concentration is tested in duplicate.
A 15 μL portion of Tris buffer containing 1 mM calcium chloride is added to each well of a 96 well microtiter plate. A 1 μL portion of drug solution or vehicle (dimethyl sulfoxide) is added to each well followed by the addition of a 75 μL portion of the cell suspension. The plates are gently mixed then allowed to stand at ambient temperature for 10 minutes. A 10 μL portion of 30 μM A23187 Calcium Ionophore (prepared by dissolving the ionophore in DMSO and then diluting 1:80 into the Tris buffer) is added to each well except the wells that contain the blanks. The blank wells measure the level of LTC4 production in the absence of A23187. The plates are gently mixed then incubated at 37° C. for 10 minutes.
Following incubation the plates are centrifuged at 2000 rpm for 1.5 minutes and the supernatant is removed as quickly as possible to stop the reaction. The supernatants are frozen at -20° C. until they are assayed.
The supernatants are assayed for the presence of Leukotriene C4 by radioimmunoassay which is performed according to the manufacturer's instructions (Advanced Magnetics; Cambridge, Mass.). Inhibition of leukotriene biosynthesis is calculated as the ratio of the amount of LTC4 formed in the presence (LTC4 +cpd) and absence (LTC4 no cpd) of compound according to the following equation. [formula] IC50 values (concentrations of compound producing 50% leukotriene biosynthesis inhibition) are calculated by linear regression analysis of percentage inhibition versus log compound concentration plots.

SMILES	IC50 (5-lipoxygenase) [nM]	other results
CCC(CC)N(O)C(=O)Nc1ccc(Cc2ccc(NC(=O)N(O)C(CC)CC)cc2)cc1 [Example 12, 4,4'-Methylenebis(1-hydroxy-1-(1-ethylpropyl)-3-phenylurea)]	–	inhibition in vivo at 50 mg/kg [1]: 15%; inhibition at 0.1 µM ([2]; 0.1 μM): 83%; inhibition at 1 µM ([2]; 1.0 μM): 93%; inhibition at 10 µM ([2]; 10.0 μM): 100%
CCC(CC)N(O)C(=O)Nc1ccc(Oc2ccc(NC(=O)N(O)C(CC)CC)cc2)cc1 [Example 14, 4,4'-Oxybis(1-hydroxy-1-(1-ethylpropyl)-3-phenylurea)]	100	–
CCC(CC)N(O)C(=O)Nc1ccc(Cc2ccc(NC(=O)N(O)C(CC)CC)c(Cl)c2)cc1Cl [Example 19, 4,4'-Methylenebis(1-hydroxy-1-(1-ethylpropyl)-3-(2-chlorophenyl)urea)]	110	–

Now from value to compound, other results behind:

IC50 (5-lipoxygenase) [nM]	SMILES	other results
65000	CCC(CC)N(O)C(=O)NC(C)(C)c1cccc(C(C)(C)NC(=O)N(O)C(CC)CC)c1 [Example 13, 1,1'-(m-Phenylene)bis(1-methyl-1-(3-hydroxy-3-(1-ethylpropyl)ureido)ethane)]	–
2100	CCC(CC)N(O)C(=O)Nc1ccc(NC(=O)N(O)C(CC)CC)cc1 [Example 15, 1,1'-(p-Phenylene)bis(3-hydroxy-3-(1-ethylpropyl)urea)]	–
58600	CCC(CC)N(O)C(=O)Nc1ccc(C)c(NC(=O)N(O)C(CC)CC)c1 [Example 16, 1,1'-(4-Methyl-m-phenylene)bis(3-hydroxy-3-(1-ethylpropyl)urea)]	–
12000	CCC(CC)N(O)C(=O)NCCCC(C)CNC(=O)N(O)C(CC)CC (centres unmarked) [Example 17, 1,1'-(2-Methylpentamethylene)bis(3-hydroxy-3-(1-ethylpropyl)urea)]	–
330	CCC(CC)N(O)C(=O)NCCCCCCCCNC(=O)N(O)C(CC)CC [Example 18, 1,1'-Octamethylenebis(3-hydroxy-3-(1-ethylpropyl)urea)]	–
